Data taken from ChEMBL document CHEMBL5154653, “The discovery of 1, 3-diamino-7H-pyrrol[3, 2-f]quinazoline compounds as potent antimicrobial antifolates” (Eur J Med Chem, 2022).
The source made the active and inactive calls. The rule behind the calls is not given here.

Key:
Escherichia coli [1] = assay: Inhibition of Escherichia coli C-terminal hexahistidine tagged DHFR at 5 uM incubated for 5 mins in presence of NADPH by measuring oxidation of NADPH to NADP+
Escherichia coli [2] = assay: Antibacterial activity against Escherichia coli ATCC 25922 assessed as reduction in microbial growth after 16 to 18 hrs by microbroth dilution method; assay type: functional; conditions: time 16-18 hrs
Klebsiella pneumoniae [3] = assay: Antibacterial activity against Klebsiella pneumoniae ATCC 700603 assessed as reduction in microbial growth after 16 to 18 hrs by microbroth dilution method; assay type: functional; conditions: time 16-18 hrs
Acinetobacter baumannii [4] = assay: Antibacterial activity against Acinetobacter baumannii ATCC 19606 assessed as reduction in microbial growth after 16 to 18 hrs by microbroth dilution method; assay type: functional; conditions: time 16-18 hrs
[5] = Inhibition of Escherichia coli C-terminal hexahistidine tagged DHFR incubated for 5 mins in presence of NADPH by measuring oxidation of NADPH to NADP+
Escherichia coli [6] = assay: Binding affinity to Escherichia coli C-terminal hexahistidine tagged DHFR assessed as change in enthalpy at 0.2 mM by isothermal titration calorimetry method
Escherichia coli [7] = assay: Binding affinity to Escherichia coli C-terminal hexahistidine tagged DHFR assessed as change in entropy at 0.2 mM by isothermal titration calorimetry method
[8] = Binding affinity to Escherichia coli C-terminal hexahistidine tagged DHFR assessed as dissociation constant by isothermal titration calorimetry method
Escherichia coli [9] = assay: Binding affinity to Escherichia coli C-terminal hexahistidine tagged DHFR assessed as change in gibbs free energy at 0.2 mM by isothermal titration calorimetry method
Acinetobacter baumannii [10] = assay: Antibacterial activity against multi drug resistant Acinetobacter baumannii CCPM(A)-100902 assessed as reduction in microbial growth after 16 to 18 hrs by microbroth dilution method; assay type: functional; conditions: time 16-18 hrs
Acinetobacter baumannii [11] = assay: Antibacterial activity against multi drug resistant Acinetobacter baumannii CCPM(A)-100903 assessed as reduction in microbial growth after 16 to 18 hrs by microbroth dilution method; assay type: functional; conditions: time 16-18 hrs
Acinetobacter baumannii [12] = assay: Antibacterial activity against multi drug resistant Acinetobacter baumannii CCPM(A)-1100708 assessed as reduction in microbial growth after 16 to 18 hrs by microbroth dilution method; assay type: functional; conditions: time 16-18 hrs
Acinetobacter baumannii [13] = assay: Antibacterial activity against Acinetobacter baumannii CCPM(A)-100946 assessed as reduction in microbial growth after 16 to 18 hrs by microbroth dilution method; assay type: functional; conditions: time 16-18 hrs
Acinetobacter baumannii [14] = assay: Antibacterial activity against Acinetobacter baumannii CCPM(A)-100947 assessed as reduction in microbial growth after 16 to 18 hrs by microbroth dilution method; assay type: functional; conditions: time 16-18 hrs
Klebsiella pneumoniae [15] = assay: Antibacterial activity against ESBL-producing Klebsiella pneumoniae CCPM(A)-081514 assessed as reduction in microbial growth after 16 to 18 hrs by microbroth dilution method; assay type: functional; conditions: time 16-18 hrs
Klebsiella pneumoniae [16] = assay: Antibacterial activity against ESBL-producing Klebsiella pneumoniae CCPM(A)-081568 assessed as reduction in microbial growth after 16 to 18 hrs by microbroth dilution method; assay type: functional; conditions: time 16-18 hrs
Klebsiella pneumoniae [17] = assay: Antibacterial activity against Klebsiella pneumoniae CCPM(A)-081018 assessed as reduction in microbial growth after 16 to 18 hrs by microbroth dilution method; assay type: functional; conditions: time 16-18 hrs
Escherichia coli [18] = assay: Antibacterial activity against Escherichia coli CCPM(A)-0715118 assessed as reduction in microbial growth after 16 to 18 hrs by microbroth dilution method; assay type: functional; conditions: time 16-18 hrs
Escherichia coli [19] = assay: Antibacterial activity against ESBL-producing Escherichia coli CCPM(A)-071030 assessed as reduction in microbial growth after 16 to 18 hrs by microbroth dilution method; assay type: functional; conditions: time 16-18 hrs
Escherichia coli [20] = assay: Antibacterial activity against ESBL-producing Escherichia coli CCPM(A)-0715117 assessed as reduction in microbial growth after 16 to 18 hrs by microbroth dilution method; assay type: functional; conditions: time 16-18 hrs
Escherichia coli [21] = assay: Antibacterial activity against ESBL-producing Escherichia coli CCPM(A)-0715142 assessed as reduction in microbial growth after 16 to 18 hrs by microbroth dilution method; assay type: functional; conditions: time 16-18 hrs
Staphylococcus aureus [22] = assay: Antibacterial activity against Staphylococcus aureus ATCC 29213 assessed as reduction in microbial growth after 16 to 18 hrs by microbroth dilution method; assay type: functional; conditions: time 16-18 hrs
Staphylococcus aureus [23] = assay: Antibacterial activity against methicillin-resistant Staphylococcus aureus ATCC 43300 assessed as reduction in microbial growth after 16 to 18 hrs by microbroth dilution method; assay type: functional; conditions: time 16-18 hrs
Enterococcus faecium = assay: Antibacterial activity against vancomycin-resistant Enterococcus faecium ATCC 51559 assessed as reduction in microbial growth after 16 to 18 hrs by microbroth dilution method; assay type: functional; conditions: time 16-18 hrs
Escherichia coli [24] = assay: Antibacterial activity against Escherichia coli ATCC 25922 overexpressing DHFR assessed as reduction in microbial growth after 16 to 18 hrs by microbroth dilution method; assay type: functional; conditions: time 16-18 hrs
Escherichia coli [25] = assay: Bactericidal activity against Escherichia coli ATCC 25922 at 0.5 to 8 times MIC by counting bacterial colonies upto 24 hrs time-kill assay; assay type: functional, organism-based; conditions: DDE = dose-dependent effect
Escherichia coli [26] = assay: Bactericidal activity against Escherichia coli ATCC 25922 assessed as reductions in colony forming unit at 8 times MIC measured for 24 hrs by time-kill assay; assay type: functional
Escherichia coli [27] = assay: Bactericidal activity against Escherichia coli ATCC 25922 assessed as suppression of regrowth of colonies at 4 to 8 times MIC measured for 24 hrs by time-kill assay; assay type: functional, organism-based
Escherichia coli [28] = assay: Bactericidal activity against Escherichia coli ATCC 25922 at 30 pg/ml measured for 24 hrs in presence of SMZ by time-kill assay; assay type: functional, organism-based
Klebsiella pneumoniae [29] = assay: Bactericidal activity against Klebsiella pneumoniae CCPM(A)-081514 at 0.5 ug/ml measured for 24 hrs in presence of SMZ by time-kill assay; assay type: functional, organism-based; conditions: dose 0.5 µg/ml
Escherichia coli [30] = assay: Synergistic antibacterial activity against Escherichia coli ATCC 25922 assessed as fractional inhibitory concentration index at 30 pg/ml measured for 24 hrs in presence of SMZ by microdilution checkerboard assay; assay type: functional
Klebsiella pneumoniae [31] = assay: Synergistic antibacterial activity against Klebsiella pneumoniae CCPM(A)-081514 assessed as fractional inhibitory concentration index at 0.5 ug/ml measured for 24 hrs in presence of SMZ by microdilution checkerboard assay; assay type: functional; conditions: dose 0.5 µg/ml
Escherichia coli [32] = assay: In vivo Antibacterial activity against Escherichia coli ATCC 25922 in septicemia ICR mouse model assessed as increase in mouse survival time administered iv measured after 14 hrs; assay type: functional, organism-based; conditions: dose 7.5-15 mg/kg, DDE = dose-dependent effect
Escherichia coli [33] = assay: In vivo Antibacterial activity against Escherichia coli ATCC 25922 in septicemia ICR mouse model assessed as increase in mouse survival time at 15 mg/kg,iv measured after 14 hrs; assay type: functional
Escherichia coli [34] = assay: In vivo Antibacterial activity against Escherichia coli ATCC 25922 in septicemia ICR mouse model assessed as reduction in bacterial load at 50 mg/kg, iv measured after 2 to 4 hrs; assay type: functional; conditions: time 2-4 hrs
Thymidylate synthase = Thymidylate synthase (Escherichia coli K-12, UniProt P0A884); assay: Inhibition of Escherichia coli N-terminal hexahstidine-tagged TS by steady-state kinetic analysis
[35] = target: Thymidylate synthase (Escherichia coli K-12) (UniProt P0A884); assay: Binding affinity to Escherichia coli […] hexahistidine-tagged TS at 20 uM by biolayer interferometry assay
Klebsiella pneumoniae [36] = assay: Antibacterial activity against ESBL-producing Klebsiella pneumoniae ATCC 700603 assessed as reduction in microbial growth after 16 to 18 hrs by microbroth dilution method; assay type: functional; conditions: time 16-18 hrs
Escherichia coli [37] = assay: Antibacterial activity against Escherichia coli ATCC 25922 assessed as blockage of folate pathway after 16 to 18 hrs in presence of thymine by microbroth dilution method; assay type: functional; conditions: time 16-18 hrs
Escherichia coli [38] = assay: Potency index ratio of IC50 for TMP to IC50 for test compound for inhibition of Escherichia coli C-terminal hexahistidine tagged DHFR
Escherichia coli [39] = assay: Antibacterial activity against Escherichia coli ATCC 25922 assessed as blockage of folate pathway after 16 to 18 hrs in presence of thymine by measuring fold increase in MIC by microbroth dilution method; assay type: functional; conditions: time 16-18 hrs
Escherichia coli [40] = assay: Bactericidal activity against Escherichia coli ATCC 25922 at 0.5 to 8 times MIC by counting bacterial colonies time-kill assay; assay type: functional, organism-based; conditions: time <= 24.0 hrs, TDE = time-dependent effect
Escherichia coli [41] = assay: In vivo Antibacterial activity against Escherichia coli ATCC 25922 in septicemia ICR mouse model assessed as increase in mouse survival rate administered iv measured […]; assay type: functional, organism-based; conditions: dose 7.5-15 mg/kg, DDE = dose-dependent effect
[42] = target: Thymidylate synthase (Escherichia coli K-12) (UniProt P0A884); assay: Binding affinity to Escherichia coli N-terminal hexahistidine tagged TS assessed as change in gibbs free energy at 0.2 mM by isothermal titration calorimetry method
[43] = target: Thymidylate synthase (Escherichia coli K-12) (UniProt P0A884); assay: Binding affinity to Escherichia coli N-terminal hexahistidine tagged TS assessed as change in entropy at 0.2 mM by isothermal titration calorimetry method
[44] = target: Thymidylate synthase (Escherichia coli K-12) (UniProt P0A884); assay: Inhibition of Escherichia coli N-terminal hexahstidine-tagged TS at 500 uM by steady-state kinetic analysis
Escherichia coli [45] = assay: Antibacterial activity against Escherichia coli ATCC 25922 overexpressing DHFR assessed as fold increase in MIC after 16 to 18 hrs by microbroth dilution method; assay type: functional; conditions: time 16-18 hrs

Thymidylate synthase (Escherichia coli K-12), sequence (P0A884 whole entry, looked up): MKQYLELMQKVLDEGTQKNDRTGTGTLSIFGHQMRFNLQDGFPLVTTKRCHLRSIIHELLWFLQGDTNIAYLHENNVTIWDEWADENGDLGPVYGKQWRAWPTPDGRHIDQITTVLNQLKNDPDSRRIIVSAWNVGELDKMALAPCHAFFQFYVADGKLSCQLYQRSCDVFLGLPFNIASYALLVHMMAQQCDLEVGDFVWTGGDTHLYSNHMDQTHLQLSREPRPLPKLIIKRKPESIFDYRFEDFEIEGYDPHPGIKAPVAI
Thymidylate synthase, sequence (P0A884 whole entry): as the sequence (P0A884 whole entry, looked up) above

Compound: Nc1nc(N)c2c(ccc3c2ccn3Cc2ccccc2F)n1
- inhibition (Escherichia coli [1]): 76.2%
- MIC (Escherichia coli [2]): 0.002 µg/mL
- MIC (Klebsiella pneumoniae [3]): 1 µg/mL
- MIC (Acinetobacter baumannii [4]): 1 µg/mL
- IC50 [5]: 0.00236 µM
- deltaH (Escherichia coli [6]): -20.4 kcal/mol
- TdeltaS (Escherichia coli [7]): -19.4 kcal/mol
- Kd [8]: 0.00157 µM
- deltaG (Escherichia coli [9]): -9.14 kcal/mol
- MIC (Acinetobacter baumannii [10]): 0.03 µg/mL
- MIC (Acinetobacter baumannii [11]): 8 µg/mL
- MIC (Acinetobacter baumannii [12]): 8 µg/mL
- MIC (Acinetobacter baumannii [13]): 0.06 µg/mL
- MIC (Acinetobacter baumannii [14]): 0.125 µg/mL
- MIC (Klebsiella pneumoniae [15]): 2 µg/mL
- MIC (Klebsiella pneumoniae [16]): 0.03 µg/mL
- MIC (Klebsiella pneumoniae [17]): 16 µg/mL
- MIC (Escherichia coli [18]): 16 µg/mL
- MIC (Escherichia coli [19]): 0.06 µg/mL
- MIC (Escherichia coli [20]): 0.002 µg/mL
- MIC (Escherichia coli [21]): 0.002 µg/mL
- MIC (Staphylococcus aureus [22]): 0.03 µg/mL
- MIC (Staphylococcus aureus [23]): 0.5 µg/mL
- MIC (Enterococcus faecium): 0.03 µg/mL
- MIC (Escherichia coli [24]): 8 µg/mL
- Activity (Escherichia coli [25]): Dde
- Activity (Escherichia coli [26]): 3 log10CFU/ml
- Activity (Escherichia coli [27]): Active
- Activity (Escherichia coli [28]): Active
- Activity (Klebsiella pneumoniae [29]): Active
- fractional inhibitory concentration index (FICI) (Escherichia coli [30]): 0.02
- fractional inhibitory concentration index (FICI) (Klebsiella pneumoniae [31]): 0.07
- Activity (Escherichia coli [32]): Dde
- Activity (Escherichia coli [33]): 50%
- Activity (Escherichia coli [34]): 100 CFU/ml
- IC50 (Thymidylate synthase): 11.2 µM
- Activity [35]: Active
- MIC (Klebsiella pneumoniae [36]): 1 µg/mL
- MIC (Escherichia coli [37]): 8 µg/mL
- Ratio IC50 (Escherichia coli [38]): 20
- fold change (FC) (Escherichia coli [39]): 4000
- Activity (Escherichia coli [40]): Tde
- Activity (Escherichia coli [41]): Dde
- deltaG [42]: -5.82 kcal/mol
- TdeltaS [43]: -20.9 kcal/mol
- inhibition [44]: 50%

Compound: Nc1nc(N)c2c(ccc3c2ccn3Cc2cccs2)n1
- inhibition (Escherichia coli [1]): 92.8%
- MIC (Escherichia coli [2]): 0.002 µg/mL
- MIC (Klebsiella pneumoniae [3]): 1 µg/mL
- MIC (Acinetobacter baumannii [4]): 1 µg/mL
- IC50 [5]: 0.0159 µM
- deltaH (Escherichia coli [6]): -18.5 kcal/mol
- deltaS (Escherichia coli [7]): -24.1 cal/mol/deg
- Kd [8]: 0.00485 µM
- deltaG (Escherichia coli [9]): -11.3 kcal/mol
- MIC (Acinetobacter baumannii [10]): 0.25 µg/mL
- MIC (Acinetobacter baumannii [11]): 8 µg/mL
- MIC (Acinetobacter baumannii [12]): 8 µg/mL
- MIC (Acinetobacter baumannii [13]): 8 µg/mL
- MIC (Acinetobacter baumannii [14]): 0.5 µg/mL
- MIC (Klebsiella pneumoniae [15]): 0.06 µg/mL
- MIC (Klebsiella pneumoniae [16]): 0.002 µg/mL
- MIC (Klebsiella pneumoniae [17]): 16 µg/mL
- MIC (Escherichia coli [18]): 16 µg/mL
- MIC (Escherichia coli [19]): 0.002 µg/mL
- MIC (Escherichia coli [20]): 0.002 µg/mL
- MIC (Escherichia coli [21]): 0.002 µg/mL
- MIC (Staphylococcus aureus [22]): 0.03 µg/mL
- MIC (Staphylococcus aureus [23]): 0.25 µg/mL
- MIC (Enterococcus faecium): 0.03 µg/mL
- MIC (Escherichia coli [24]): 8 µg/mL
- IC50 (Thymidylate synthase): 11.4 µM
- Activity [35]: Active
- MIC (Klebsiella pneumoniae [36]): ≤ 0.25 µg/mL
- MIC (Escherichia coli [37]): 16 µg/mL
- fold change (FC) (Escherichia coli [45]): 4000
- fold change (FC) (Escherichia coli [39]): 8000
- inhibition [44]: 50%
